{"source": "patent US20190224186A1", "about": "“TREATMENT OF MULTIPLE SCLEROSIS WITH CHS-131” (InteKrin Therapeutics, Inc., priority 2016, published 2019)", "format_in_all_cases": "in vivo, human", "key": {"[1]": {"tested_on": "MS patients in the relapsing and remitting course of the disease (RRMS)", "assay": "Phase 2 trial: whole brain volume by serial MRIs", "description": "Whole brain volume was evaluated at baseline and six months in this study. Neural atrophy was measured by serial determination of brain volume using serial MRIs."}, "[2]": {"tested_on": "MS patients in the relapsing and remitting course of the disease (RRMS)", "assay": "Phase 2 trial: change in cortical (neocortical) volume by MRI, SIENAX-MTP3", "details": "3 mg", "description": "Upon completion of the six-month trial period described in Example 1 the change in neocortical volume and whole brain volume was evaluated. Table 9 below reports the change in neocortical volumes at 3 months and at 6 months, compared to baseline, for the 3 mg and placebo groups. Baseline volume was normalized for head size. Percent change is calculated by […]-multi-time point (MTP3) algorithm. The difference in the mean change in volume calculated to determine the impact treatment with CHS-131."}, "[3]": {"tested_on": "MS patients in the relapsing and remitting course of the disease (RRMS)", "assay": "Slope of cortical atrophy at six months as a function of CE lesion number", "details": "n=70", "description": "To evaluate the connection between the reduction in cortical volume loss and CHS-131 treatment, cortical volume was compared to observed CE lesion in the MS patients. […] The slopes of cortical atrophy at six months as a function of CE lesion number at six months was plotted for the placebo group (n=69), the CHS-131 1 mg/day group (n=70), and the CHS-131 3 mg/day group (n=70). For the placebo, 1 mg/day, and 3 mg/day groups the slopes were: −0.040391, −0.019631, and −0.001783, respectively. […] Thus, the reduction in CE lesions as a result of CHS-131 treatment is correlated with a reduction in the loss of cortical volume in MS patients."}, "[4]": {"tested_on": "MS patients in the relapsing and remitting course of the disease (RRMS)", "assay": "Phase 2 trial: change in cortical (neocortical) volume by MRI, SIENAX-MTP3", "details": "1 mg"}, "[5]": {"tested_on": "MS patients in the relapsing and remitting course of the disease (RRMS)", "assay": "Phase 2 trial: annualized confirmed relapse rate (ARR)", "description": "The study enrolled MS patients in the relapsing and remitting course of the disease (RRMS) who had been diagnosed within ≤3 years of enrollment. Patients had to be treatment-naïve, have ≥1 gadolinium-positive lesion within 12 months of enrollment, and have an Expanded Disability Status Score (EDSS) of 0-6 at screening. Part 1 was a double-blind, parallel-group, 6-month study. Patients were randomized to oral CHS-131 at 3 mg or 1 mg or placebo in a 1:1:1 ratio at 21 sites in Russia. Monthly MRIs were read in a blinded fashion at the Buffalo Neuroimaging and Analysis Center, Buffalo, N.Y., USA. Part 2 is an open label, 6-month, safety extension study, in which all subjects transition to 1 mg CHS-131 daily, to evaluate clinical response, CE lesions on MM, and safety. The ARR was lower for both 3 mg CHS-131 (0.26) and 1 mg (0.28) as compared with placebo (0.35). Thus, administering CHS-131 reduces the rate at which relapses of worsening neurological function (e.g. flare-ups or exacerbations) occur. Put otherwise, administration of CHS-131 increases the time between relapses."}}, "data": [{"compound": "O=S(=O)(Nc1cc(Cl)c(Oc2cnc3ccccc3c2)c(Cl)c1)c1ccc(Cl)cc1Cl", "note": "[CHS-131]", "values": [{"measurement": "less neural volume loss compared to placebo", "setting": "[1]; 1 mg daily, 6 months", "value": 13, "unit": "%"}, {"measurement": "brain volume lost over 6 months", "setting": "[1]; 1 mg/day", "value": 0.14, "unit": "%"}, {"measurement": "less parenchymal atrophy than the placebo treated cohort", "setting": "[1]; 3 mg daily, 6 months", "value": 50, "unit": "%"}, {"measurement": "neural parenchyma volume lost over 6 months", "setting": "[1]; 3 mg/day", "value": 0.08, "unit": "%"}, {"measurement": "Cortical volume rate of loss", "setting": "[2]; 3 Months", "value": "−0.297"}, {"measurement": "Reduction in cortical volume loss from CHS-131, as compared to placebo", "setting": "[2]; 3 Months", "value": 42.6, "unit": "%"}, {"measurement": "Cortical volume rate of loss", "setting": "[2]; 6 Months", "value": "−0.709"}, {"measurement": "Reduction in cortical volume loss from CHS-131, as compared to placebo", "setting": "[2]; 6 Months", "value": 34.2, "unit": "%"}, {"measurement": "Cortical volume, percent change from baseline to 6 month, Mean", "setting": "[2]; n=56", "value": "−0.709", "unit": "%"}, {"measurement": "Cortical volume, percent change from baseline to 6 month, Median", "setting": "[2]; n=56", "value": "−0.832", "unit": "%"}, {"measurement": "Cortical volume, percent change from baseline to 3 month, Mean", "setting": "[2]; n=61", "value": "−0.297", "unit": "%"}, {"measurement": "Cortical volume, percent change from baseline to 3 month, Median", "setting": "[2]; n=61", "value": "−0.325", "unit": "%"}, {"measurement": "slope of cortical atrophy at six months as a function of CE lesion number", "setting": "[3]; 1 mg/day", "value": "−0.01963"}, {"measurement": "slope of cortical atrophy at six months as a function of CE lesion number", "setting": "[3]; 3 mg/day", "value": "−0.001783"}, {"measurement": "reduction in the loss of cortical volume", "setting": "[4]", "value": "No reduction in the loss of cortical volume was observed"}, {"measurement": "Cortical volume, percent change from baseline to 6 month, Mean", "setting": "[4]; n=50", "value": "−1.350", "unit": "%"}, {"measurement": "Cortical volume, percent change from baseline to 6 month, Median", "setting": "[4]; n=50", "value": "−1.428", "unit": "%"}, {"measurement": "Cortical volume, percent change from baseline to 3 month, Mean", "setting": "[4]; n=57", "value": "−0.706", "unit": "%"}, {"measurement": "Cortical volume, percent change from baseline to 3 month, Median", "setting": "[4]; n=57", "value": "−0.746", "unit": "%"}, {"measurement": "Annualized Confirmed Relapse Rate (ARR)", "setting": "[5]; 1 mg", "value": 0.28}, {"measurement": "Annualized Confirmed Relapse Rate (ARR)", "setting": "[5]; 3 mg", "value": 0.26}]}]}
